The values that follow come from patent publication US10202369B2, “1,3-thiazol-2-yl substituted benzamides” (BAYER AKTIENGESELLSCHAFT, priority 2014, dated 2019).

A short description of data set [1]: In vitro metabolic stability in liver microsomes (calculated Fmax). Type of data set: in vitro ADME, human. The note with it: 1 μM, calculated maximal oral bioavailability. As to the method:
In Vitro Metabolic Stability Assays Determination of in vitro Metabolic Stability in Microsomes (Including Calculation of Hepatic in vivo Blood Clearance (CL) and of Maximal Oral Bioavailability (Fmax))
The metabolic assay was started shortly afterwards by adding the test compound to the incubation at a final volume of 1 mL. Organic solvent in the incubations was limited to ≤0.01% dimethylsulfoxide (DMSO) and ≤1% acetonitrile. […] Samples were frozen at −20° C. overnight, subsequently centrifuged for 15 minutes at 3000 rpm and the supernatant was analyzed with an Agilent 1200 HPLC-system with LCMS/MS detection.
The half-life of a test compound was determined from the concentration-time plot. From the half-life (kel: slope of concentration-time plot; half-life=In2/kel) the intrinsic clearances were calculated. Together with the additional parameters liver blood flow, specific liver weight and microsomal protein content the hepatic in vivo blood clearance (CL) and the maximal oral bioavailability (Fmax) were calculated for the different species.
(§1) Metabolic instability is often the main clearance mechanism of xenobiotica leading to a high CL and low bioavailability which may eventually result in a short half-life and a low exposure after oral administration. Thus, reducing the susceptibility of metabolic degradation usually leads to a more favourable pharmacokinetic profile. When using liver microsomes as incubation matrix main phase I metabolic reactions, typically oxidoreductive reactions by cytochrome P450 enzymes and flavin mono-oxygenases (FMO) and hydrolytic reactions by esterases/amidases/epoxidhydrolases, are described. When the incubation of the test compound is performed in a hepatocyte matrix all potential hepatic metabolic processes (phase I and phase II) are covered.

Another data set relates to rat hepatocytes. The experiment in a line: In vitro metabolic stability in rat hepatocytes (calculated Fmax). It is filed as in vitro ADME, Han Wistar rats. The note with it: 1 μM, calculated maximal oral bioavailability. The protocol:
Determination of in Vitro Metabolic Stability in Rat Hepatocytes (Including Calculation of Hepatic in Vivo Blood Clearance (CL))
Hepatocytes from Han Wistar rats were isolated via a 2-step perfusion method. After perfusion, the liver was carefully removed from the rat: the liver capsule was opened and the hepatocytes were gently shaken out into a Petri dish with ice-cold Williams' medium E (WME). The resulting cell suspension was filtered through sterile gaze in 50 mL falcon tubes and centrifuged at 50×g for 3 min at room temperature. The cell pellet was resuspended in 30 mL WME and centrifuged through a Percoll® gradient for 2 times at 100×g. The hepatocytes were washed again with WME and resuspended in medium containing 5% FCS. Cell viability was determined by trypan blue exclusion. […] The test compound was added to a final concentration of 1 μM. […] Samples were frozen at −20° C. overnight, subsequently centrifuged for 15 minutes at 3000 rpm and the supernatant was analyzed with an Agilent 1200 HPLC-system with LCMS/MS detection.
The half-life of a test compound was determined from the concentration-time plot. From the half-life (kel: slope of concentration-time plot; half-life=In2/kel) the intrinsic clearances were calculated. Together with the additional parameters liver blood flow, amount of liver cells in vivo and in vitro.
as §1

Another data set relates to vaginal hyperalgesia. The experiment in a line: Rat dyspareunia model (visceromotor response to vaginal distension). Type of data set: in vivo, Sprague Dawley rats. The note with it: 15 mg/kg oral b.i.d. during 2 weeks.
For the next data set, the target named is human P2X3 receptor (Homo sapiens (Human), UniProt P56373). The experiment in a line: Intracellular calcium measurement (FLIPR, Fluo-4) of antagonist activity at human P2X3 receptor. It is filed as cell-based. As to conditions: human P2X3, FLIPR Fluo-4 calcium, agonist α,β-Me-ATP at EC80; read-out: hP2X3 IC50. The protocol:
(§2) Intracellular Calcium Measurement to Assess Antagonist Activity at Human P2X3 and Human P2X2/3 Receptors
(§3) A fluorescent imaging plate reader (FLEX/FLIPR station; Molecular Devices) was used to monitor intracellular calcium levels using the calcium-chelating dye Fluo-4 (Molecular Probes). […] Cells expressing purinergic receptors P2X3 (human) or P2X2/3 (human) were plated at a density of 15,000 cells/well in collagen-coated 384-well plates approximately 20 hours before beginning the assay. […] The test compound was added in a volume of 5 μl and allowed to incubate for 30 min at 37° C. The final assay DMSO concentration is 1%.
(§4) The agonist, α,β-Me-ATP, was added in a volume of 20 μl at a concentration representing the EC80 value. The fluorescence was measured for an interval of 90 sec at 2 sec intervals and analyzed based on the increase in peak relative fluorescence units (RFU) compared to the basal fluorescence. Peak fluorescence was used to determine the response to agonist obtained at each concentration of test compound by the following equation: % Response=100*(RFU(test compound)−RFU(control))/(RFU(DMSO)−RFU(control))
(§5) The Examples were tested in triplicates per plate and mean values were plotted in Excel XLFit to determine IC5o values at the human P2X3 and human P2X2/3 receptors, percentage of maximal inhibition and the Hill coefficients.
On the technique in general: Calcium assays in cells follow changes in intracellular calcium, usually with a dye or a luminescent sensor.

For the next data set, the target named is human P2X2/3 receptor (Homo sapiens (Human), UniProt P56373+Q9UBL9). The experiment in a line: Intracellular calcium measurement (FLIPR, Fluo-4) of antagonist activity at human P2X2/3 receptor. It is filed as cell-based. As to conditions: human P2X2/3, FLIPR Fluo-4 calcium, agonist α,β-Me-ATP at EC80; read-out: hP2X2/3 IC50. As to the method: as §2, §3, §4, §5
Chain of human P2X2/3 receptor (P56373 whole entry): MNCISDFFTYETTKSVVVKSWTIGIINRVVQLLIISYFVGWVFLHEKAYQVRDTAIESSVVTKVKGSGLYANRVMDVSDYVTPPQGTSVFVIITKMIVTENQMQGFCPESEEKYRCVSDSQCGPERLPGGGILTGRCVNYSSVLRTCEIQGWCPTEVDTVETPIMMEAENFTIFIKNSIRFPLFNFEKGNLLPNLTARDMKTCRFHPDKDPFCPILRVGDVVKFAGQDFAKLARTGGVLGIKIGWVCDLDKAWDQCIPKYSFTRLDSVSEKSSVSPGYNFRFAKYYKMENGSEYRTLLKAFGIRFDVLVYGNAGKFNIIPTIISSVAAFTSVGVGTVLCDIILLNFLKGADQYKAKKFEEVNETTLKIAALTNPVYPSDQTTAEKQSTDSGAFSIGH
Chain of human P2X2/3 receptor (Q9UBL9 whole entry): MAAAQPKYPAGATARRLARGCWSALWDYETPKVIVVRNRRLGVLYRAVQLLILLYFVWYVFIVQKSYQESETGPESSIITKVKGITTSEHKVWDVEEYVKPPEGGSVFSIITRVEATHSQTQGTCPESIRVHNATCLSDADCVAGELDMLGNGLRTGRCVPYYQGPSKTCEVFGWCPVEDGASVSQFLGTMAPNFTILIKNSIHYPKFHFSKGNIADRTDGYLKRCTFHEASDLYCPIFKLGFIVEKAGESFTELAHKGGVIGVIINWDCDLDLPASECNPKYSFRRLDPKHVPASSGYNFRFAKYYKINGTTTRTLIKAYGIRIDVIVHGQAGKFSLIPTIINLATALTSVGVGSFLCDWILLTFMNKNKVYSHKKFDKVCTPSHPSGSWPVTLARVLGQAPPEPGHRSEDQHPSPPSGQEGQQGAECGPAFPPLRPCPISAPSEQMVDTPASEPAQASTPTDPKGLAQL

The conditions of data set [2]: clinical PhII trials; attributed to blockade of P2X2/3 channels; cited from earlier work.

Chain of human P2X3 receptor (P56373 whole entry): as the sequence (P56373 whole entry) above
Source text for vaginal hyperalgesia: The visceromotor response (VMR) to vaginal distension was used in conscious animals as an objective measure of vaginal sensitivity. Briefly, animals in estrus phase were surgically implanted with biopsies of left uterine horn (3×3 mm) around alternate cascade mesenteric arteries that supply the small intestine (4 pieces) and on the wall of the distal colon (2 pieces). To measure VMR response, 2 Teflon-coated wire electrodes were sutured in the external oblique abdominal muscle, and tunneled subcutaneously to be exteriorized at the base of the neck for future access. On the day of VMR assessment, a lubricated small balloon (1 cm length) was inserted into the mid-vaginal canal. […] The electrodes were connected to an amplifier (Animal Bio Amp, ADlnstruments), and the abdominal electromyographic signal was recorded using a data acquisition system (PowerLab, ADlnstruments) for off-line analysis using LabChart version 7. The number of abdominal muscle contractions was counted manually for each 0.1 ml distension step, as an index of vaginal pain. […] All data were expressed as mean±standard deviation (s.d.), for the number (n) of measured rats per group. […] Planned comparison of means (matched-volume versus vehicle) was performed using a Bonferroni post hoc test, provided that a main effect was detected. […]

With `Cc1cnc(-c2cc(O[C@@H]3CCOC3)cc(C(=O)N[C@H](C)c3cnc(C(F)(F)F)nc3)c2)s1` [Example 11, 3-(5-Methyl-1,3-thiazol-2-yl)-5-[(3R)-tetrahydrofuran-3-yloxy]-N-{(1R)-1-[2-(trifluoromethyl)pyrimidin-5-yl]ethyl}benzamide], the “Human liver microsome Fmax” value in data set [1] is recorded as 57%. In addition, the “Rat hepatocyte Fmax” value with rat hepatocytes is given as 52%. In the data set with vaginal hyperalgesia, the “Vaginal hyperalgesia compared to vehicle-treated animals” value was “decreased vaginal hyperalgesia”.

For `Cc1cnc(-c2cc(OC(C)C(C)O)cc(C(=O)N[C@H](C)c3cnc(C(F)(F)F)nc3)c2)s1` (single isomer, unassigned) [Example 163], the “Human liver microsome Fmax” value in data set [1] was 100%. Moreover, the “Rat hepatocyte Fmax” value in the data set with rat hepatocytes was 53%.

With `CCc1cnc(-c2cc(OC[C@H]3CN(C)CCO3)cc(C(=O)N[C@H](C)c3ccc(C(F)(F)F)nn3)c2)s1` [Example 419, 3-(5-ethyl-1,3-thiazol-2-yl)-5-{[(2R)-4-methyl-morpholin-2-yl]methoxy}-N-{(1R)-1-[6-(trifluoromethyl)pyridazin-3-yl]ethyl} benzamide], in data set [1], the “Human liver microsome Fmax” value is recorded as 74%. The “Rat hepatocyte Fmax” value in the data set with rat hepatocytes is listed as 51%.

Take `CCc1cnc(-c2cc(OC[C@H]3CCCO3)cc(C(=O)N[C@H](C)c3cnc(C)cn3)c2)s1` [Example 277, 3-(5-ethyl-1,3-thiazol-2-yl)-N-[(1R)-1-(5-methypyrazin-2-yl)ethyl]-5-[(3S)-tetrahydrofuran-3-ylmethoxy]benzamide]: the IC50 amounted to 6 nM on human P2X3 receptor and 96 nM at human P2X2/3 receptor.

As to `Cc1cnc(-c2cc(OC(C)C(C)O)cc(C(=O)N[C@H](C)c3cnc(C(F)(F)F)nc3)c2)s1` (single isomer, unassigned) [Example 340], the “Human liver microsome Fmax” value in data set [1] is on record as 90%. The “Rat hepatocyte Fmax” value in the data set on rat hepatocytes is reported as 64%.

In the case of `Cc1cnc(-c2cc(OC(C)C(C)O)cc(C(=O)N[C@H](C)c3ccc(C(F)(F)F)nn3)c2)s1` (single isomer, unassigned) [Example 183], in data set [1], the “Human liver microsome Fmax” value was 74%. For the same compound, the “Rat hepatocyte Fmax” value in the data set on rat hepatocytes is recorded as 43%.

As for `Cc1cnc(-c2cc(O[C@H]3CCOC3)cc(C(=O)N[C@H](C)c3cnc(C(F)(F)F)nc3)c2)s1` [Example 26, 3-(5-methyl-1,3-thiazol-2-yl)-5-[(3S)-tetrahydrofuran-3-yloxy]-N-{(1R)-1-[2-(trifluoromethyl)pyrimidin-5-yl]ethyl}benzamide], in data set [1], the “Human liver microsome Fmax” value is on record as 67%. Also, the “Rat hepatocyte Fmax” value in the data set with rat hepatocytes was 56%.

For `COc1cc(C(C)C)c(Oc2cnc(N)nc2N)cc1S(N)(=O)=O` [AF-219], the “taste disturbances in treated subjects” value in data set [2] was “taste disturbances”.

Take `Cc1cnc(-c2cc(OC(C)C(C)O)cc(C(=O)N[C@H](C)c3cnc(C(F)(F)F)nc3)c2)s1` (single isomer, unassigned) [Example 339]: in data set [1], the “Human liver microsome Fmax” value is 94%. The “Rat hepatocyte Fmax” value with rat hepatocytes is recorded as 52%.
